# Measured values taken from patent US20140113904A1, “TREATMENT OF CANCER WITH TOR KINASE INHIBITORS” (SIGNAL PHARMACEUTICALS, LLC, priority 2012, published 2014).
# Like-named read-outs stand apart in the source and are kept apart here.
# Assays:
# Oral bioavailability = assay: Oral bioavailability; design: species or system rodent; details: in vivo
# [1] = system: PC3 prostate cancer cell lines; assay: PC3 cellular activity: proliferation; details: Homo sapiens, PC-3, read-out: PC3 Cellular Activity Prolif IC50
# pAktS473 [2] = assay: PC3 cellular activity: pAktS473 (mTORC2) inhibition; assay type: cell-based; details: Homo sapiens, PC-3; average of 2 or more experiments; read-out: PC3 Cellular Activity pAkt IC50
# pS6 [3] = assay: PC3 cellular activity: pS6 (mTORC1) inhibition; assay type: cell-based; details: Homo sapiens, PC-3; average of 2 or more experiments
# mTOR = mTOR (Homo sapiens, UniProt P42345); assay: mTOR inhibition (Table 3); assay type: biochemical; details: average of 2 or more experiments
# 4E-BP1(T46) = assay: Phospho-4E-BP1(T46) in PC3 cell lysates, Luminex multiplex; assay type: cell-based, human; details: PC3 cells, up to concentrations of 10 μM
# Source text: (§1) The direct substrate for TORC1 was 4E-BP 1(T46) and indirect downstream substrate was S6RP(S235/S236). The direct substrate for TORC2 was Akt(S473) and indirect downstream substrates measured were GSK3β(S9) and PRAS40(T246). Additionally, the phosphorylation status of Akt(T308), a phosphorylation site for PDK1 was monitored.
# The multiplex Luminex assay format differs from conventional enzyme-linked immunosorbent assay (ELISA) in that the multiplex capture antibody is attached to a polystyrene bead whereas the ELISA capture antibody is attached to the microplate well. The use of the suspension bead-based technology enables the multiplexing capabilities of the Luminex assays. The xMAP® technology uses 5.6 micron polystyrene microspheres, which are internally dyed with red and infrared fluorophores of differing intensities. Each bead is given a unique number, or bead region, allowing differentiation of one bead from another. Beads covalently bound to different specific antibodies can be mixed in the same assay, utilizing a 96-well microplate format. At the completion of the sandwich immunoassay, beads can be read, using the Luminex 100™ or Luminex 200 detection system, in single-file by dual lasers for classification and quantification of each analyte. […]
# S6RP(S235/S236) = assay: Phospho-S6RP(S235/S236) in PC3 cell lysates, MSD; assay type: cell-based, human; details: Homo sapiens, PC-3, 1 h, PC3 cells, 1 hour; two values; read-out: IC50 for inhibition of S6RP(S235/S236) phosphorylation
# Source text: as §1
# (§2) MSD® biomarker detection assays provide a rapid and convenient method for measuring the total and phosphorylated levels of protein targets within a single small volume sample. These assays are available in both single-plex and multiplex formats. In a single-plex assay, an antibody for a specific protein target is coated on one electrode (or spot) per well. […] MSD Read Buffer that provides the appropriate chemical environment for ECL is added and the plate is read using an MSD SECTOR™ Imager. […] The instrument measures intensity of the emitted light to afford a quantitative measure of the amount of phosphorylated Akt or S6RP present in the sample. […]
# (§3) The assay plate was incubated with 150 μL of MSD Blocker A Solution for 1 hour with shaking at room temperature. […] Then 150 μL of 1×MSD Read Buffer T was added to each well. The plate was read on the SECTOR Imager plate reader. The Excel data was transferred to Activity Base and IC50 values were calculated.
# (§4) All data was analyzed using XLfit from IDBS. […]
# [4] = Body weight in Compound 1 PC3 xenograft efficacy studies; assay type: in vivo, SCID mice; details: rapamycin 4 mg/kg, 3 weeks, data not shown
# Experimental: The BID dose groups were dosed with a 10-hour separation between the morning and evening doses. […] At the end of each study, plasma and/or tumor samples were collected.
# Initial body weights were recorded prior to the initiation of treatment using a digital scale. The percent body weight change during the course of the study was calculated using initial body weight measurements. Body weights of each animal were measured twice a week at the same time that tumor measurements were taken. Body weights were measured more frequently if significant decreases were noted during the course of the study.
# Akt(S473) = assay: Phospho-Akt(S473) in PC3 cell lysates, MSD; assay type: cell-based, human; details: PC3 cells, data not shown
# Source text: as §1, §2, §3, §4
# PC3 xenograft = assay type: in vivo
# [5] = Compound 6 plasma and tumor levels (PK/PD); assay type: in vivo, mice; details: 30 mg/kg single dose, by 24 h
# FMS = FMS (Homo sapiens, UniProt P07333); assay: FMS concentration-response curve; assay type: biochemical
# FMS, sequence (P07333 20-972, species assumed): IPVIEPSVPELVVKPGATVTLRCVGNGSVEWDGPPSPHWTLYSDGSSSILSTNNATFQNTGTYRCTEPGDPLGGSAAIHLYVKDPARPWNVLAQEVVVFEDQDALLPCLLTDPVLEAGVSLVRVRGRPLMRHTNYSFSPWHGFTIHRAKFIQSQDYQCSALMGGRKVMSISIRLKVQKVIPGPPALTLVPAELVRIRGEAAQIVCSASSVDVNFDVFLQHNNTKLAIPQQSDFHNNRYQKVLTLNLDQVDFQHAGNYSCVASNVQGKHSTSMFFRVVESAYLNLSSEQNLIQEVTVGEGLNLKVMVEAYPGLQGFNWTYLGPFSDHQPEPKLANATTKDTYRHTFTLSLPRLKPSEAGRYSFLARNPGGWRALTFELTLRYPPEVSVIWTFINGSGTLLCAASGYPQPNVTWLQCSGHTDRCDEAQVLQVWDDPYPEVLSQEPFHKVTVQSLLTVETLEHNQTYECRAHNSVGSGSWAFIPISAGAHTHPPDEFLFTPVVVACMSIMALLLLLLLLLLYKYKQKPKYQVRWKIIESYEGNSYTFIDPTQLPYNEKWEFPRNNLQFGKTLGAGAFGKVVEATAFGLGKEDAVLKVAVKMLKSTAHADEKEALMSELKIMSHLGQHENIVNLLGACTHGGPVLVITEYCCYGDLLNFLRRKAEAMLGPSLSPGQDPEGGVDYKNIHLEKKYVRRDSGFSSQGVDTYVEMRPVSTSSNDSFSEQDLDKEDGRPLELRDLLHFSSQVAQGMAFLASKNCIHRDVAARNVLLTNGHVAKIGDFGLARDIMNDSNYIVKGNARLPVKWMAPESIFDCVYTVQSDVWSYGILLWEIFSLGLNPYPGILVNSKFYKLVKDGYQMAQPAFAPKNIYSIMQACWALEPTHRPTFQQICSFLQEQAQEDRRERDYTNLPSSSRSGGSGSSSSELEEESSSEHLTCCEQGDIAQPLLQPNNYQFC
# pS6 [6] = assay: Tumor pS6 after single dose of Compound 6 (PK/PD); assay type: in vivo, mice; details: for inhibition at 30 mg/kg: Mus musculus, 30 mg/kg single dose
# 249 kinases = assay: Single point kinase selectivity assay against 249 kinases; assay type: biochemical; details: 10 μM
# pAktS473 [7] = assay: Tumor pAktS473 after single dose of Compound 6 (PK/PD); assay type: in vivo, mice; details: Mus musculus, 30 mg/kg single dose
structure (smiles),measurement,setting,value
O=C1CN(CCC2CCOCC2)c2nc(-c3ccc(-c4nc[nH]n4)cc3)cnc2N1 [Compound 4],oral bioavailability,Oral bioavailability,poor oral bioavailability
same,IC50,[1],148 nM
CC(C)(O)c1ccc(-c2cnc3[nH]c(=O)n(CC4CCOCC4)c3n2)cn1 [Compound 5],IC50,pAktS473 [2],2550 nM
same,IC50,pS6 [3],2410 nM
same,IC50,mTOR,176 nM
same,IC50,[1],4180 nM
"CO[C@H]1C[C@@H]2CC[C@@H](C)[C@@](O)(O2)C(=O)C(=O)N2CCCC[C@H]2C(=O)O[C@H]([C@H](C)C[C@@H]2CC[C@@H](O)[C@H](OC)C2)CC(=O)[C@H](C)/C=C(\C)[C@@H](O)[C@@H](OC)C(=O)[C@H](C)C[C@H](C)/C=C/C=C/C=C/1C [rapamycin, reference compound]",inhibition of 4E-BP1(T46) phosphorylation,4E-BP1(T46),not inhibited
same,IC50,S6RP(S235/S236),0.019 nM
same,change in body weight,[4],No significant change
same,inhibition of Akt(S473) phosphorylation,Akt(S473),did not inhibit
CC(C)(O)c1ccc(-c2cnc3c(n2)N(CC2CCOCC2)CC(=O)N3)cn1 [Compound 6],oral bioavailability,Oral bioavailability,excellent oral bioavailablity
same,tumor volume inhibition compared to vehicle control,PC3 xenograft; 10 mg/kg oral once daily,18%
same,tumor volume inhibition compared to vehicle control,PC3 xenograft; 25 mg/kg oral once daily,63%
same,tumor volume inhibition compared to vehicle control,PC3 xenograft; 50 mg/kg oral once daily,84%
same,tolerability,"PC3 xenograft; all dose levels and schedules, 3 weeks of treatment",well tolerated
same,PC3 tumor growth,"PC3 xenograft; oral, once or twice daily or every second day",significantly inhibited PC3 tumor growth
same,plasma and tumor level of compound,[5],almost completely cleared
same,IC50,FMS,2700 nM
same,"biomarker (pS6, pAktS473) inhibition in tumor","pS6 [6]; 100 mg/kg single dose, through 24 hours",full biomarker inhibition
same,inhibition at 30 mg/kg,pS6 [6]; 2-8 h,87 to 93%
same,inhibition at 30 mg/kg,pS6 [6]; 24 h,43%
same,kinases other than mTOR inhibited >80%,249 kinases,only one kinase other than mTOR was inhibited >80%
same,inhibition at 30 mg/kg,pAktS473 [7]; 2-8 h,53 to 77%
same,inhibition at 30 mg/kg,pAktS473 [7]; 24 h,28%
O=c1[nH]c2ncc(-c3ccc(-c4nc[nH]n4)cc3)nc2n1CCC1CCOCC1 [Compound 3],IC50,pAktS473 [2],18 nM
same,oral bioavailability,Oral bioavailability,poor oral bioavailability
same,IC50,pS6 [3],40 nM
same,IC50,mTOR,2 nM
same,IC50,[1],224 nM
